From ChEMBL document CHEMBL1201862, “PubChem BioAssay data set” (2004)
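Cells were grown in 96-well plates and exposed to each compound for 48 hours at five concentrations; endpoints were interpolated linearly between bracketing concentrations, or set to the highest concentration if not reached. Abbreviation: GI50, concentration required for 50% inhibition of growth.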 Activity calls are given as the source filed them. Rule as the data show it: active = GI50 up to about 1.1 µM and inactive = higher.

Assays:
Assay in all cases: inhibition of tumour cell growth, NCI panel, 48 h
OVCAR-3 = test system: OVCAR-3
UACC-257 = test system: UACC-257
ACHN = test system: ACHN
U-251 = test system: U-251
KM12 = test system: KM12
A498 = test system: A498
SW-620 = test system: SW-620
786-0 = test system: 786-0
SK-MEL-28 = test system: SK-MEL-28
CCRF-CEM = test system: CCRF-CEM
OVCAR-5 = test system: OVCAR-5
SF-539 = test system: SF-539
OVCAR-4 = test system: OVCAR-4
RPMI-8226 = test system: RPMI-8226
SNB-19 = test system: SNB-19

Measured: GI50

CC1=C(C(=O)NCc2ccccc2)C(c2ccc(Cl)c(Cl)c2)C(C(=O)NCc2ccccc2)=C(C)N1
inactive: OVCAR-3 > 100 µM | UACC-257 > 100 µM | ACHN > 100 µM | U-251 > 100 µM | KM12 > 100 µM | A498 > 100 µM | SW-620 > 100 µM | 786-0 > 100 µM | SK-MEL-28 > 100 µM | CCRF-CEM > 100 µM | OVCAR-5 > 100 µM | SF-539 > 100 µM | OVCAR-4 > 100 µM | RPMI-8226 > 100 µM | SNB-19 > 100 µM

COC(=O)c1c[nH]c2nc(N3CCOCC3)nn2c1=O
inactive: OVCAR-3 > 100 µM | UACC-257 > 100 µM | ACHN > 100 µM | U-251 > 100 µM | KM12 > 100 µM | A498 > 100 µM | SW-620 > 100 µM | 786-0 > 100 µM | SK-MEL-28 > 100 µM | CCRF-CEM > 100 µM | OVCAR-5 > 100 µM | SF-539 > 100 µM | OVCAR-4 > 100 µM | RPMI-8226 > 100 µM | SNB-19 > 100 µM

CC1CCCC(C(O)CC2CC(=O)N(c3ccccc3)C(=O)C2)C1=O (stereo not given)
inactive: OVCAR-3 > 100 µM | UACC-257 > 100 µM | ACHN > 100 µM | U-251 > 100 µM | KM12 > 100 µM | A498 > 100 µM | SW-620 > 100 µM | 786-0 > 100 µM | SK-MEL-28 > 100 µM | CCRF-CEM > 100 µM | OVCAR-5 > 100 µM | SF-539 > 100 µM | OVCAR-4 > 100 µM | RPMI-8226 > 100 µM | SNB-19 > 100 µM

CC(=O)CC(=O)N(CCN(C(=O)CC(C)=O)c1ccccc1)c1ccccc1
inactive: OVCAR-3 > 100 µM | UACC-257 32.2 µM | ACHN > 100 µM | U-251 > 100 µM | KM12 > 100 µM | A498 > 100 µM | SW-620 > 100 µM | 786-0 > 100 µM | SK-MEL-28 > 100 µM | CCRF-CEM 58.2 µM | OVCAR-5 > 100 µM | SF-539 > 100 µM | OVCAR-4 > 100 µM | RPMI-8226 72.9 µM | SNB-19 > 100 µM

Cc1cccc(C)c1NC(=O)CCC(=O)/N=C(\N)NC#N
inactive: OVCAR-3 > 100 µM | UACC-257 > 100 µM | ACHN > 100 µM | U-251 > 100 µM | KM12 > 100 µM | A498 > 100 µM | SW-620 > 100 µM | 786-0 > 100 µM | SK-MEL-28 77.8 µM | CCRF-CEM > 100 µM | OVCAR-5 > 100 µM | SF-539 > 100 µM | OVCAR-4 > 100 µM | RPMI-8226 > 100 µM | SNB-19 > 100 µM

COC(=O)C1=C(O)c2cc3c(cc2[C@H](c2cc(OC)c(OC)c(OC)c2)C1)OCO3
inactive: OVCAR-3 19 µM | UACC-257 34 µM | ACHN 23.1 µM | U-251 44.5 µM | KM12 23.3 µM | A498 22.5 µM | SW-620 61.4 µM | 786-0 58.5 µM | SK-MEL-28 39.2 µM | CCRF-CEM 38.1 µM | OVCAR-5 > 100 µM | SF-539 > 100 µM | OVCAR-4 32.5 µM | RPMI-8226 23 µM | SNB-19 > 100 µM

O=[N+]([O-])c1ccc(-n2nnc(C3=NCCN3)c2-c2ccccc2)cc1
inactive: OVCAR-3 > 100 µM | UACC-257 > 100 µM | ACHN > 100 µM | U-251 > 100 µM | KM12 > 100 µM | A498 > 100 µM | SW-620 > 100 µM | 786-0 > 100 µM | SK-MEL-28 > 100 µM | CCRF-CEM > 100 µM | OVCAR-5 > 100 µM | SF-539 > 100 µM | OVCAR-4 > 100 µM | RPMI-8226 > 100 µM | SNB-19 > 100 µM
